pIC50: −log10 of the molar value. Counter-ions that a name gives are not always drawn. Like-named read-outs stand apart in the source and are kept apart here.
Key:
TXA2 synthetase [1] = biological target: T1, TXA2 synthetase (Oryctolagus cuniculus, UniProt G1TAZ9); assay: Inhibition of TXA2 synthetase using rabbit platelet microsome; type: biochemical; conditions: PGH2 5 nmol, 22° C., 3 minutes, measured as TXB2 by EIA, read-out: TXA2 synthetase inhibitory action: amount necessary for 50% inhibition of TXA2 synthesis
T1 construct: to prepare a microsomal fraction; from tissue; host or cells: rabbit blood platelets, microsomal fraction
T1 sequence (G1TAZ9 1-530): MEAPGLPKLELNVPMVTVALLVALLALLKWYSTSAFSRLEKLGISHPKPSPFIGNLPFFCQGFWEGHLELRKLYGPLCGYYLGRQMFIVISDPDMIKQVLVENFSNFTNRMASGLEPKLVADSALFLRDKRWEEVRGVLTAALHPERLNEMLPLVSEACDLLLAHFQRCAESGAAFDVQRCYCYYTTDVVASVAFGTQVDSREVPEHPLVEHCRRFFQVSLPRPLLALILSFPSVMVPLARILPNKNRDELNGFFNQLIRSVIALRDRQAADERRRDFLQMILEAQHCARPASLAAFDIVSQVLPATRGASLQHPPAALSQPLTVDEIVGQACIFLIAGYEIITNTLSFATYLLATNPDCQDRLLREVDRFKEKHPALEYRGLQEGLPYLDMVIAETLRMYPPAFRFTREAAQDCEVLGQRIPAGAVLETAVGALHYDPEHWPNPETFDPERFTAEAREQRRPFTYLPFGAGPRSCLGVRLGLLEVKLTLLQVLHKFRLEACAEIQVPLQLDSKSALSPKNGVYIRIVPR
Procedure: Inhibition of TXA2 synthetase using rabbit platelet microsome
Blood was taken from the carotid artery of normal rabbit, using EDTA (77 mM EDTA, 1/10 vol). The blood was centrifuged at 1300 rpm for 10 minutes and platelet rich plasma in the supernatant was recovered, which was centrifuged at 3400 rpm for 15 minutes. The sediment was washed with physiological saline (original volume) and centrifuged at 3400 rpm for 15 minutes. Then, 0.05M Tris-HCl buffer (1 mM EDTA, pH 7.5, 3-fold weight of the wet weight of platelets) was added to the sediment and the mixture was homogenated (2 minutes, full speed) using polytron. The homogenate was centrifuged at 8300 rpm for 15 minutes (Tomy RD-20III, No. 3N) and the supernatant was centrifuged at […] for 1 hour (Beckman TL-100, TLA100.3). The sediment was suspended in 0.05M Tris-HCl buffer (1 mM EDTA, pH 7.5, one-third weight of the wet weight of platelets) to prepare a microsomal fraction. The fraction was stored at -80° C. until used for the experiment.
0.05M Tris-HCl buffer (pH 7.5, 890 μl), 100 μl of the above-mentionedmicrosome (85 μg protein) and 100% DMSO or the reagent (Compound A, 5 μl) were added and the mixture was preincubated at 22° C. for 3 minutes. […]
The TXA2 amount in the above Experimental Examples was measured as TXB2 (stable compound thereof) amount by the EIA method using TXB2 assay kit (manufactured by Amersham). […]

acute toxicity in rats = conditions: rat, in vivo, po, orally administered
rabbit platelets = assay: TXA2 release from rabbit platelets; type: cell-based; conditions: Oryctolagus cuniculus, Platelet, 8 min, washed rabbit platelets, 37° C., read-out: TXA2 release suppressing action: amount necessary for 50% inhibition of TXA2 release
Procedure: TXA2 release from rabbit platelets Blood was taken from the carotid artery of normal rabbit using ethylenediaminetetraacetic acid (EDTA; 77 mM EDTA, 1/10 vol). The blood was centrifuged at 1800 rpm for 8 minutes and platelet rich plasma in the supernatant was recovered, which was then centrifuged at 3200 rpm for 8 minutes. The sediment (platelet) was washed with Tyrode-HEPES-EDTA buffer and centrifuged at 3200 rpm for 8 minutes. The sediment was suspended in Tyrode-HEPES buffer to prepare washed platelets (5×10^8 platelets/ml). 100% DMSO or a reagent (Compound A, 1.5 μl) was added to the washed platelets (270 μl) and the mixture was heated at 37° C. for 2 minutes. Then, collagen (10 μg/ml) and 1 mM Ca^2+ (or 1 mM Ca^2+ alone when investigating release from unstimulated platelets) were added and the experiment was started. After heating at 37° C. for 8 minutes, 10^-3 M indomethacin was added and the cuvette was placed in ice to stop the reaction. After centrifugation at 10,000 rpm for 10 minutes, the supernatant was taken and stored at -20° C. until used for the TXA2 determination. The TXA2 amount in the above Experimental Examples was measured as TXB2 (stable compound thereof) amount by the EIA method using TXB2 assay kit (manufactured by Amersham). | *1: amount necessary for 50% inhibition of TXA2 release (μM)

TXA2 synthetase [2] = biological target: T2, TXA2 synthetase (Homo sapiens, UniProt P24557); assay: inhibition of TXA2 synthetase by the use of human platelet microsome; type: biochemical; conditions: read-out: IC50 (amount necessary to inhibit 50% of TXA2 synthesis) of TXA2 synthetase inhibitory action
T2 construct: human platelet microsome was used; from tissue; host or cells: human blood platelets, microsomal fraction
T2 sequence (P24557 1-533): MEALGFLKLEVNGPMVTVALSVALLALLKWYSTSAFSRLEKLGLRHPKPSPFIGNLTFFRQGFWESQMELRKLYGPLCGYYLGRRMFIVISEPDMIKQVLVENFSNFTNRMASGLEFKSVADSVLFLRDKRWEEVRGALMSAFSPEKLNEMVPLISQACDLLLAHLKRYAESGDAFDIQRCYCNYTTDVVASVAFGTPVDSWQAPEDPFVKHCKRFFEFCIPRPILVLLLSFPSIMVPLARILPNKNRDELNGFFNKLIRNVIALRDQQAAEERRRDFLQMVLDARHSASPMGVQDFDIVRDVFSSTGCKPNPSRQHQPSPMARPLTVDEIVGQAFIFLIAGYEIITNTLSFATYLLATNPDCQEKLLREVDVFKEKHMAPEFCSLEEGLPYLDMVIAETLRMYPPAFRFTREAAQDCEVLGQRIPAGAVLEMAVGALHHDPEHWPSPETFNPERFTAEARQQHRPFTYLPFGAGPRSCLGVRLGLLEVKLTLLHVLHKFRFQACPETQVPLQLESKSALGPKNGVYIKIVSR
Procedure: The TXA2 amount in the above Experimental Examples was measured as TXB2 (stable compound thereof) amount by the EIA method using TXB2 assay kit (manufactured by Amersham). inhibition of TXA2 synthetase by the use of human platelet microsome In the same manner as in Experimental Example 2 except that human platelet microsome was used instead of rabbit platelet microsome, the experiment was performed. Compound A, Compound B and Compound C were used as reagents.

acute toxicity in dogs = conditions: dog, in vivo, po, orally administered

pIC50 (TXA2 synthetase [2]) | Compound | pIC50 (TXA2 synthetase [1]) | LD50 (acute toxicity in rats) | pIC50 (rabbit platelets; not stimulated, 1 mM Ca2+ alone) | pIC50 (rabbit platelets; stimulated with collagen (10 μg/ml), 1 mM Ca2+) | LD50 (acute toxicity in dogs)
7.52 | O=c1[nH]nc(OCC[C@@H](O)c2ccc(Cl)cc2)c(NCc2cccnc2)c1Br [Compound C, 4-bromo-6-[(3R)-(4-chlorophenyl)-3-hydroxypropoxy]-5-(3-pyridylmethylamino)-3(2H)-pyridazinone hydrochloride] |  |  |  |  | 
7.70 | O=c1[nH]nc(OCC[C@H](O)c2ccc(Cl)cc2)c(NCc2cccnc2)c1Br [Compound B, 4-bromo-6-[(3S)-(4-chlorophenyl)-3-hydroxypropoxy]-5-(3-pyridylmethylamino)-3(2H)-pyridazinone hydrochloride] |  |  |  |  | 

Compound | pIC50 (TXA2 synthetase [2]) | pIC50 (TXA2 synthetase [1]) | LD50 (acute toxicity in rats) | pIC50 (rabbit platelets; not stimulated, 1 mM Ca2+ alone) | pIC50 (rabbit platelets; stimulated with collagen (10 μg/ml), 1 mM Ca2+) | LD50 (acute toxicity in dogs)
Cl.O=c1[nH]nc(OCCCc2ccc(Cl)cc2)c(NCc2cccnc2)c1Br [Compound A, 4-bromo-6-[3-(4-chlorophenyl)propoxy]-5-(3-pyridylmethylamino)-3(2H)-pyridazinone hydrochloride] | 8.00 | 7.74 | ≥ 2000 mg/kg | 6.00 | 8.05 | ≥ 2000 mg/kg

— US5798357A, “Agent for prophylaxis and treatment of thromboxane A2 -mediated diseases” (The Green Cross Corporation, priority 1994, dated 1998)
